The values that follow are results of earlier work, collected in patent US20250262254A1, “THERAPEUTIC COMPOSITIONS AND METHODS OF USING SEROTONIN MODULATING MICROBIOME-BASED INTERVENTIONS TO TREAT SEROTONIN-RELATED DISEASES OR DISORDERS” (HOLOBIOME, INC, priority 2019, published 2025).

The structures appear in SMILES notation.

This series has as its system mouse model. The conditions noted are these: microbiota-derived tryptamine.

As to `NCCc1c[nH]c2ccccc12` [tryptamine], the GI transit result is “accelerate GI transit”.
